In ChEMBL document CHEMBL1154827, “Acetylcholinesterase inhibitory pyridine alkaloids of the leaves of Senna multijuga” (J Nat Prod, 2010):

Key:
[1] = target: Acetylcholinesterase (Electrophorus electricus) (UniProt O42275); assay: Inhibition of electric eel AChE assessed as purple zones of inhibition after 20 mins by TLC bioautography
[2] = target: Acetylcholinesterase (Electrophorus electricus) (UniProt O42275); assay: Inhibition of electric eel AChE at 350 […] by microplate assay

Chain of Acetylcholinesterase (Electrophorus electricus) (O42275 24-633 limits assumed): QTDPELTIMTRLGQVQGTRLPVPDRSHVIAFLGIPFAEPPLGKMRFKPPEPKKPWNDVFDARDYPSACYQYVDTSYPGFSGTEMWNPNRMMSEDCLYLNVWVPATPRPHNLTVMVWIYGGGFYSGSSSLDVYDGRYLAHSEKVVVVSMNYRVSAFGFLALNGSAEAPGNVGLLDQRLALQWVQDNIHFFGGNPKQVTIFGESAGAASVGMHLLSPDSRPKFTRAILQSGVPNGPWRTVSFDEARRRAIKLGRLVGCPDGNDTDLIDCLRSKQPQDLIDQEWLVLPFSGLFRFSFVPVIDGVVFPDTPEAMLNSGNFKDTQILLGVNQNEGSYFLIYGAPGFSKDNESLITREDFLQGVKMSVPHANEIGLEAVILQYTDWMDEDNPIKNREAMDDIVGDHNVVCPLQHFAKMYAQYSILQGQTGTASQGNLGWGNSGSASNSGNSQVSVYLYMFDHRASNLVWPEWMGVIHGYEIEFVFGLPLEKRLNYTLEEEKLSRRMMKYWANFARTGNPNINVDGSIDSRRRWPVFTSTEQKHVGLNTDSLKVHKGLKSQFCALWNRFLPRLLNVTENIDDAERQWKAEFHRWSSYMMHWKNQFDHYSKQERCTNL

| Compound | INH [1] [µg] | inhibition [2] [%] |
| --- | --- | --- |
| C[C@@H]1O[C@@H](OC[C@H]2O[C@@H](Oc3c(-c4ccc(O)c(O)c4)oc4cc(O)cc(O)c4c3=O)[C@H](O)[C@@H](O)[C@@H]2O)[C@H](O)[C@H](O)[C@H]1O | > 100 | – |
| CNC(=O)Oc1ccc2c(c1)[C@]1(C)CCN(C)[C@@H]1N2C | 0.05 | 87 |
| Cc1nc(CCCCCCC(=O)CCCCCO)ccc1O | 0.18 | 30 |
| CCCCCC(=O)CCCCCCc1ccc(O)c(C)n1 | 0.75 | 13 |
